Measurements from patent US6849634B2, “Potassium channel inhibitors” (ICAgen, priority 2000, dated 2005).

target: T1, Kv1.5 (Homo sapiens, UniProt P22460); test: Kv1.5 inhibition by patch clamp technique; format: cell-based; conditions: inhibitors of Kv1.5
T1 construct: expressed in transfected cells; host or cells: CHO cells
From the text: The pharmacological profile of the potassium channel inhibitory activity of the compounds of the present invention can be readily assessed by those skilled in the art using routine experimentation, such as the procedures and techniques illustrated in the examples which follow. Assays for assessing the activity of particular compounds may employ cells stably transfected to express a specific potassium channel, as well as native mammalian cells. In particular, stable transfected cells, transfected to express a specific potassium channel, which have been treated with a voltage dependent fluorescent dye, such as bis-(1,3-dibutylbarbituric acid) trimethine oxonol, can be used to gauge the inhibitory activity of potassium channel inhibitor compounds, possibly in comparison to known inhibitors. Alternatively, such cells can be primed with a detectible species, such as 86Rb, and then challenged with a particular compound, under conditions otherwise suitable for activating the potassium channel, to assess the potassium inhibitory activity of the compound. The potassium channel inhibitory activity of a compound also can be determined using isolated mammalian cells and the whole cell configuration of the known patch clamp technique (Hamill et al., Pflugers Archiv 391:85, 1981). These and other known techniques can be readily employed by those skilled in the art to assess the activity level of the potassium channel inhibitor compounds of the present invention.
The cloning, construction and testing of CHO cells that express human voltage-gate potassium channels are described in prior U.S. patent application Ser. No. 08/893,160 (published as WO 98/04521, see also U.S. Pat. No. 6,083,986), as are assays for measuring ^86rubidium efflux from cell monolayers; fluorescence measurement of cell membrane potential; electrophysiological studies and lymphocyte proliferation studies, all of which are incorporated herein by reference.
The efficacy of various compounds of the present invention as inhibitors of Kv1.5 are shown in Table 2 (using the known patch clamp techniques cited above and described in detail in WO 98/04521 (see also U.S. Pat. No. 6,083,986), the disclosure of which is incorporated herein by reference)

T1 sequence (P22460 whole entry): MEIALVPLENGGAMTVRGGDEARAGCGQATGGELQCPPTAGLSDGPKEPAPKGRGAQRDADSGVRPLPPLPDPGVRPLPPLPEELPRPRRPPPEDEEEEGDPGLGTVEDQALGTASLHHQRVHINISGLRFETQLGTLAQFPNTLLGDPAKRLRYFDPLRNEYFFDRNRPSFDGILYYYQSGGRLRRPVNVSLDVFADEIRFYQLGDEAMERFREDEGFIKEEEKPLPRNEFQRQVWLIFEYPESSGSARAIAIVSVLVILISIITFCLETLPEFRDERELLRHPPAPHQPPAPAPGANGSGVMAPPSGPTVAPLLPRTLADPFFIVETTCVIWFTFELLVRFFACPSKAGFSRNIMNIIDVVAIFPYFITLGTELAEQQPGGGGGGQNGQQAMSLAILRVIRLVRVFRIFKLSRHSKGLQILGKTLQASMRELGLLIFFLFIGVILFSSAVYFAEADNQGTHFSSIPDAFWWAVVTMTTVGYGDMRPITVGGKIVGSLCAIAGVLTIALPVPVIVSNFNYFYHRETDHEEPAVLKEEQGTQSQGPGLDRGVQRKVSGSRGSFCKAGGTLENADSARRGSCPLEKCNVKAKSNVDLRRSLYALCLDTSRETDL

inhibition at 0.1 µM [%] | Structure (SMILES)
35 | CCCNC(=O)c1cccnc1Nc1ccc2c(c1)C(NS(=O)(=O)c1ccc(CC)cc1)CC2 (stereo not shown) [Compound 37]
45 | CCc1ccc(S(=O)(=O)NC2CCc3ccc(Nc4ncccc4C(=O)NCc4ccco4)cc32)cc1 (stereo not shown) [Compound 42]
43 | C#CCNC(=O)c1cccnc1Nc1ccc2c(c1)C(NS(=O)(=O)c1ccc(CC)cc1)CC2 (stereo not shown) [Compound 27]
20 | O=C(NCc1cccs1)c1cccnc1Nc1ccc2c(c1)C(NS(=O)(=O)c1ccc(F)cc1)CC2 (stereo not shown) [Compound 59]
27 | O=C(NCCc1ccccc1)c1cccnc1Nc1ccc2c(c1)C(NS(=O)(=O)c1ccc(F)cc1)CC2 (stereo not shown) [Compound 58]
46 | CCc1ccc(S(=O)(=O)NC2CCc3ccc(Nc4ncccc4NC(=O)CCc4ccccc4)cc32)cc1 (stereo not shown) [Compound 1]
38 | C=CCNC(=O)c1cccnc1Nc1ccc2c(c1)C(NS(=O)(=O)c1ccc(CC)cc1)CC2 (stereo not shown) [Compound 26]
